Reference: patent US20030065039A1, “Biologically active 1,3-bis-aromatic-prop-2-en-1-ones, 1,3-bis-aromatic-propan-1-ones, and 1,3-bis-aromatic-prop-2-yn-1-ones” (Statens Serum Institute, priority 1997, published 2003)

Columns and labels:
Format in all cases: cell-based
Leishmania promastigotes = Leishmania promastigotes Assay; conditions: Leishmania; promastigotes, 3H-thymidine uptake; read-out: Leishmania IC50 ± SD
Outline: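 L. major (WHO Iran vaccine strain) and L. donovani MHOM/KE/85/NLB 274 promastigotes (3×10^6/ml, day 3 and 6 cultures) exposed to compound 2 h at 26 °C, then 3H-thymidine 18 h; incorporation counted by scintillation. Microscopic counts and flagellar motility also assessed.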

human lymphocytes = assay: Lymphocyte Proliferation Assay; conditions: Lymphocyte; PHA provoked proliferation of human lymphocytes; read-out: Lymphocytes IC50 ± SD
Outline: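 Ficoll-isolated human blood mononuclear cells (0.63×10^5/ml) in RPMI 1640 with 5% FCS were cultured in triplicate with test compound and PHA or PPD for 3 or 7 days. Proliferation measured by ^3H-thymidine incorporation over the final 24 h; triplicate median recorded.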

TNF-α = TNF-α production by human peripheral blood mononuclear cells, culture supernatant (ELISA)
Procedure: Cells: Peripheral blood mononuclear cells obtained from healthy individuals. The cells were separated by a conventional method lymphoprep) and suspended in RMPI 1640 containing 5% human serum.
Stimulation of cytokine-release from human mononuclear cells: Human peripheral blood mononuclear cells from Danish donors were suspended in 1-10% (v/v) human serum in RPMI 1640 and adjusted to 2×10^6 cells per ml. 0.1 ml volumes were then dispensed into wells of 96-well microtiter plates. […] In some experiments cells were preincubated with drugs for 2 hrs before addition of stimulation antigens. The cultures were incubated overnight for TNF-α and IL-6 assays.
Supernatants were collected and assayed for TNF-α, IL-1α and IL-6 by ELISA procedures (Jakobsen et al., 1993, Fomsgaard et al., 1988, Hansen et al., 1991) with the following modifications. ELISA Maxisorp plates (Nunc, Roskilde, Denmark) were coated for 24 hrs at 4 C with 100 μl per well of 2.5 μg/ml rabbit polyclonal IgG to human recombinant TNF, IL-1α or IL-6 in 100 mM sodiumhydrogencarbonate. Non-attached sites were blocked for 1 h by 200 μl per well of 2% human serum slbumin in PBS (1 h at 37° C.), and the wells were washed 4 times in 2.5% NaCl, 0.1% Tween 20 (Merck, Darmstadt, Germany). This washing procedure was done after each of the following incubating steps:
1) 100 μl culture supernatants made to 50% (v/v) in incubation buffer (4% (v/v) normal rabbit serum, DAKO code X902), 1% polyethylene glycol (MW 6,000), 2.5% NaCl, 0.1% Tween 20 in phosphate buffered saline (PBS) were incubated 2 hrs at 37° C., dilutions of native as well as recombinant cytokine standards in the same incubation buffer were asssayed in parallel with the tested supernatants,
2) 100 μl per well of biotinilated rabbit antibodies to recombinant TNF-α, IL-1α or IL-6 (1.5 μg/ml in 0.5% human serum albumin, 0.1% Tween 20 in PBS) were added at 37° for 2 hrs,
3) […] per well of a 1:1000 dilution of streptavidin-peroxidase (Amersham, UK), at room temperature for 30 min.
Enzyme activities were quantitated after addition of 100 μl per well of 0.67 mg/ml 1,2-phenyldiamine hydrochloride (DAKO) dissolved in 100 mM citric acid-phosphate buffer, pH 5.0 containing 0.015% (v/v) H2O2. The reactions were stopped by adding 50 μl per well of 2.5 M H2SO4, and the optical densities are measured in an ELISA scanner at 490 nm against a test reference at 620 nm.
Assay: The compounds were prepared as stock solution at a concentration of 1 mg/ml in medium containing 10% DMSO. The dilutions were made in medium. The cells were stimulated with either SPAG (a malaria antigen TNF-inducer) or bacterial LPS. The supernatant of cell cultures were assayed for TNF-α using a commercial ELISA kit.

Plasmodium falciparum = Plasmodium falciparum Assay; conditions: Plasmodium falciparum; 3-H-hypoxanthine incorporation, 48 hours; read-out: Plasmodium IC50 ± SD
Outline: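 Parasitized erythrocytes (~1% parasitemia, 5×10^8/ml) cultured 48 h in RPMI with test compound, with 3H-hypoxanthine added for the last 24 h. Growth inhibition read as 3H-hypoxanthine incorporation into parasite DNA by liquid scintillation; uninfected and untreated infected cultures run in parallel.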

IC50 (Leishmania promastigotes): 5.5 ± 0.3 µM | IC50 (Plasmodium falciparum): 8.1 µM
SMILES: COc1cc(/C=C/C(=O)c2cccc(F)c2)cc(OC)c1 [PH136, 3′-fluoro-3,5-dimethoxychalcone]
IC50 (human lymphocytes): 9.2 ± 0.5 µM | TNF-α production (OD values) (TNF-α; Experiment 1, LPS, 12.5 μg/ml, Control 1.17): 0.00 OD | TNF-α production (OD values) (TNF-α; Experiment 1, LPS, 25 μg/ml, Control 1.17): 0.00 OD | TNF-α production (OD values) (TNF-α; Experiment 1, LPS, 50 μg/ml, Control 1.17): 0.00 OD | TNF-α production (OD values) (TNF-α; Experiment 1, LPS, 100 μg/ml, Control 1.17): 0.01 OD | TNF-α production (OD values) (TNF-α; Experiment 1, SPAG, 12.5 μg/ml, Control 3.73): 0.01 OD | TNF-α production (OD values) (TNF-α; Experiment 1, SPAG, 25 μg/ml, Control 3.73): 0.00 OD | TNF-α production (OD values) (TNF-α; Experiment 1, SPAG, 50 μg/ml, Control 3.73): 0.01 OD | TNF-α production (OD values) (TNF-α; Experiment 1, SPAG, 100 μg/ml, Control 3.73): 0.00 OD | TNF-α production (OD values) (TNF-α; Experiment 2, LPS, 1.562 μg/ml, Control 2.06): 1.70 OD | TNF-α production (OD values) (TNF-α; Experiment 2, LPS, 3.125 μg/ml, Control 2.06): 1.81 OD | TNF-α production (OD values) (TNF-α; Experiment 2, LPS, 6.25 μg/ml, Control 2.06): 2.18 OD | TNF-α production (OD values) (TNF-α; Experiment 2, LPS, 12.5 μg/ml, Control 2.06): 0.08 OD | TNF-α production (OD values) (TNF-α; Experiment 2, SPAG, 1.562 μg/ml, Control 2.28): 3.29 OD | TNF-α production (OD values) (TNF-α; Experiment 2, SPAG, 3.125 μg/ml, Control 2.28): 4.00 OD | TNF-α production (OD values) (TNF-α; Experiment 2, SPAG, 6.25 μg/ml, Control 2.28): 1.39 OD | TNF-α production (OD values) (TNF-α; Experiment 2, SPAG, 12.5 μg/ml, Control 2.28): 0.02 OD
